Laboratory results reported in patent US20260373266A1, “PROTEIN DEGRADERS AND USES THEREOF” (KYMERA THERAPEUTICS, INC., priority 2022, published 2026).

These compounds were tested against T1, DCAF1 WD40 domain (residues 1077-1390) (Homo sapiens, UniProt Q9Y4B6) (assay: DCAF1 binding assay by SPR (Biacore 8K+), DCAF1-3 KD). Settings: 25 °C, read-out: DCAF1-3 SPR (KD).
T1 construct: DCAF1 WD40 domain (residues 1077-1390)
T1 sequence (Q9Y4B6 1077-1390): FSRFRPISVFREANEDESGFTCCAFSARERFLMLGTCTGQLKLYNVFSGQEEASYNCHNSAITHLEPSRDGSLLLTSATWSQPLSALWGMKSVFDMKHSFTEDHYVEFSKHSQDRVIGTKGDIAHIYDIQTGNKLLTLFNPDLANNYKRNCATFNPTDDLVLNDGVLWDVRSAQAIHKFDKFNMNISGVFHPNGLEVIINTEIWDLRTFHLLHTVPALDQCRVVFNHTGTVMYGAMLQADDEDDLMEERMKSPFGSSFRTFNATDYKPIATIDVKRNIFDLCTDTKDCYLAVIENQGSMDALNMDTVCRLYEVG

| Structure (SMILES) | Kd [µM] |
| --- | --- |
| NC(=O)C[C@H](NC(=O)c1cn[nH]c1-c1ccccc1C(N)=O)c1cccc(Cl)c1 [I-349] | 10 to 100 |
| NC(=O)C[C@H](NC(=O)c1cn[nH]c1-c1cccc(C(N)=O)c1)c1cccc(Cl)c1 [I-350] | 10 to 100 |
| NC(=O)C[C@H](NC(=O)c1cn[nH]c1-c1ccc(C(N)=O)cc1)c1cccc(Cl)c1 [I-351] | 10 to 100 |
| NC(=O)C[C@H](NC(=O)c1cn[nH]c1-c1ccccc1F)c1ccccc1C(N)=O [I-352] | > 200 |
| NC(=O)C[C@H](NC(=O)c1cn[nH]c1-c1ccccc1F)c1cccc(C(N)=O)c1 [I-353] | > 200 |
| NC(=O)C[C@H](NC(=O)c1cn[nH]c1-c1ccccc1F)c1ccc(C(N)=O)cc1 [I-354] | > 200 |
| NC(=O)C[C@H](NC(=O)c1c[nH]nc1-c1cccc2nc[nH]c12)c1cccc(Cl)c1 [I-355] | 10 to 100 |
| NC(=O)C[C@H](NC(=O)c1c[nH]nc1-c1ccc2[nH]cnc2c1)c1cccc(Cl)c1 [I-356] | 10 to 100 |
| NC(=O)C[C@H](NC(=O)c1cn[nH]c1-c1ncccc1F)c1cccc(Cl)c1 [I-357] | > 200 |
| NC(=O)C[C@@]1(NC(=O)c2cn[nH]c2-c2ccccc2F)CCc2ccc(Cl)cc21 [I-361] | > 200 |
| COCCc1[nH]cc(C(=O)N[C@@H](CC(N)=O)c2cccc(Cl)c2)c1-c1ccccc1F [I-362] | > 200 |
| Fc1cccc(N2CC[C@@H]3CCCc4cnc(N5CCOCC5)cc4N[C@H]3C2)c1 [I-363] | > 200 |
| c1ccc2c(N3CCC[C@@H](Nc4cncc(N5CCOCC5)c4)C3)nccc2c1 [I-364] | 10 to 100 |
| c1ccc2c(N3CCC[C@@H](Nc4cncc(N5CCOCC5)c4)C3)cncc2c1 [I-365] | < 10 |
| c1cc2ccc(N3CCC[C@@H](Nc4cncc(N5CCOCC5)c4)C3)cc2cn1 [I-366] | < 10 |
| c1ccc2c(N3CCC[C@@H](n4ccc(N5CCOCC5)c5ccnc4-5)C3)nccc2c1 [I-367] | > 200 |
| Nc1nc(N[C@@H]2CCCN(c3cccc(F)c3)C2)cc(N2CCOCC2)n1 [I-368] | > 200 |
| Nc1cc(N2CCOCC2)cc(N[C@@H]2CCCN(c3cccc(F)c3)C2)n1 [I-369] | > 200 |

| Structure (SMILES) | Kd [µM] |
| --- | --- |
| Fc1cccc(N2CCC[C@@H](Nc3nccc(N4CCOCC4)n3)C2)c1 [I-370] | > 200 |
| OCCN(c1nc(N2CCOCC2)c[nH]1)[C@H]1CCCN(c2cccc(F)c2)C1 [I-372] | > 200 |
| Fc1cccc(N2CCC[C@@H](Nc3cc(N4CCNCC4)ncn3)C2)c1 [I-373] | > 200 |
| CN1CCN(c2cc(N[C@@H]3CCCN(c4cccc(F)c4)C3)ncn2)CC1 [I-374] | > 200 |
| CCN1CCN(c2cc(N[C@@H]3CCCN(c4cccc(F)c4)C3)ncn2)CC1 [I-375] | > 200 |
| CCCN1CCN(c2cc(N[C@@H]3CCCN(c4cccc(F)c4)C3)ncn2)CC1 [I-376] | > 200 |
| CCCCN1CCN(c2cc(N[C@@H]3CCCN(c4cccc(F)c4)C3)ncn2)CC1 [I-377] | > 200 |
| COCCN1CCN(c2cc(N[C@@H]3CCCN(c4cccc(F)c4)C3)ncn2)CC1 [I-378] | > 200 |
| Fc1cccc(N2CCC[C@@H](Nc3cc(N4CCCCC4)ncn3)C2)c1 [I-379] | > 200 |
| Fc1cccc(N2CCC[C@@H](Nc3cccc(N4CCOCC4)c3)C2)c1 [I-380] | > 200 |
| Fc1cccc(N2CCC[C@@H](Nc3cnnc(N4CCOCC4)c3)C2)c1 [I-381] | > 200 |
| Oc1cnc(N2CCOCC2)cc1N[C@@H]1CCCN(c2cccc(F)c2)C1 [I-382] | > 200 |
| Fc1cccc(N2C[C@H](Nc3cc(N4CCOCC4)ncn3)C3CC[C@H]2C3)c1 [I-383] | > 200 |
| CN(c1cc(N2CCOCC2)ncn1)[C@@H]1CCCN(c2cccc(F)c2)C1 [I-385] | > 200 |
| CCN(c1cc(N2CCOCC2)ncn1)[C@@H]1CCCN(c2cccc(F)c2)C1 [I-386] | > 200 |
| Fc1cccc(N2CCC[C@@H](N(Cc3ccccc3)c3cc(N4CCOCC4)ncn3)C2)c1 [I-387] | > 200 |
| c1ccc2c(N3CCC[C@@H](Nc4cc(N5CCOCC5)ncn4)C3)cccc2c1 [I-388] | > 200 |
| c1ccc2cc(N3CCC[C@@H](Nc4cc(N5CCOCC5)ncn4)C3)ccc2c1 [I-389] | > 200 |
